Assay results as given in PubChem BioAssay (NCI).
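In this assay, cells in 96-well plates receive the compound at five concentrations for 48 hours. Endpoints are linearly interpolated between the surrounding concentrations. The concentration for 50% growth inhibition is given as GI50. TGI is the concentration that stops growth completely.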

Legend:
Experiment in all cases: NCI tumour cell line growth inhibition, 48 h
SK-MEL-28 melanoma = tested on: SK-MEL-28 melanoma
KM12 colon = tested on: KM12 colon
NCI-H460 lung = tested on: NCI-H460 lung
LOX IMVI melanoma = tested on: LOX IMVI melanoma
OVCAR-4 ovarian = tested on: OVCAR-4 ovarian
NCI-H23 lung = tested on: NCI-H23 lung
OVCAR-5 ovarian = tested on: OVCAR-5 ovarian
OVCAR-3 ovarian = tested on: OVCAR-3 ovarian
MDA-MB-435 = tested on: MDA-MB-435
SN12C renal = tested on: SN12C renal

Compound	TGI (SK-MEL-28 melanoma)	GI50 (KM12 colon)	TGI (KM12 colon)	GI50 (NCI-H460 lung)	TGI (NCI-H460 lung)	GI50 (LOX IMVI melanoma)	TGI (LOX IMVI melanoma)	TGI (OVCAR-4 ovarian)	TGI (NCI-H23 lung)	GI50 (OVCAR-5 ovarian)	TGI (OVCAR-5 ovarian)	GI50 (OVCAR-3 ovarian)	TGI (OVCAR-3 ovarian)	GI50 (MDA-MB-435)	TGI (MDA-MB-435)	GI50 (SN12C renal)	TGI (SN12C renal)	GI50 (SK-MEL-28 melanoma)	GI50 (OVCAR-4 ovarian)	GI50 (NCI-H23 lung)
C/C=C/C/C=C/CCC(=O)[C@H]1O[C@H]1C(N)=O	28.3 µM	17.2 µM	32 µM	17 µM	39.4 µM	8.38 µM	21.5 µM	26.1 µM	29.9 µM	16.8 µM	31.4 µM	13.9 µM	27.4 µM	11.6 µM	25 µM	11.5 µM	25.3 µM	–	–	–
COc1ccc(-n2cc(-c3cc(OC)c(OC)c(OC)c3)nc2SCc2ccccc2)cc1	> 100 µM	60 µM	> 100 µM	52.6 µM	> 100 µM	74.7 µM	> 100 µM	> 100 µM	> 100 µM	> 100 µM	> 100 µM	47.4 µM	> 100 µM	> 100 µM	> 100 µM	> 100 µM	> 100 µM	76.6 µM	13.3 µM	> 100 µM
Cc1cc(NCCCNc2ccnc3cc(Cl)ccc23)nc(N2CCN(C)CC2)n1	3.67 µM	3.97 µM	17.1 µM	2.66 µM	10.4 µM	2 µM	5.2 µM	44.5 µM	28.6 µM	11.6 µM	43.2 µM	5.79 µM	25.7 µM	2.57 µM	7.07 µM	4.76 µM	33.9 µM	1.84 µM	4.03 µM	5.9 µM
c1ccc2c(c1)sc1c3cnccc3ccc21	> 100 µM	–	> 100 µM	–	> 100 µM	–	> 100 µM	> 100 µM	> 100 µM	–	> 100 µM	–	> 100 µM	–	> 100 µM	–	> 100 µM	–	–	–
Cn1ccnc1C(=O)/C=C/c1ccc(C(=O)Nc2ccc(S(F)(F)(F)(F)F)cc2)cc1	> 14.3 µM	2.77 µM	> 14.3 µM	0.534 µM	2.57 µM	1.01 µM	3.25 µM	> 14.3 µM	> 14.3 µM	3.3 µM	> 14.3 µM	1.05 µM	7.26 µM	3.04 µM	> 14.3 µM	2.77 µM	> 14.3 µM	> 14.3 µM	0.704 µM	0.853 µM
CC(=O)N1N=C(c2ccc(Nc3nc(Nc4ccc(Cl)cc4)nc(Nc4ccc(Cl)cc4)n3)cc2)CC1c1ccc([N+](=O)[O-])cc1 (stereo unspecified)	74.4 µM	5.72 µM	> 62.4 µM	2.75 µM	12.5 µM	5.66 µM	> 47.1 µM	> 100 µM	> 100 µM	19.4 µM	> 100 µM	5.93 µM	25.6 µM	4.59 µM	36 µM	13.4 µM	> 100 µM	8.79 µM	3.85 µM	11.1 µM
CCOc1ccc(-c2cnnn2-c2nonc2-n2cccc2)cc1	> 100 µM	0.125 µM	10.1 µM	0.345 µM	> 33.4 µM	0.46 µM	> 100 µM	> 100 µM	–	1.08 µM	> 100 µM	0.233 µM	0.65 µM	0.0345 µM	0.168 µM	0.557 µM	> 100 µM	0.402 µM	0.655 µM	0.282 µM
CCOC(=O)c1sc2ncn(Cc3cccc(Br)c3)c(=O)c2c1C	> 100 µM	28.9 µM	> 100 µM	77.3 µM	> 100 µM	84.9 µM	> 100 µM	81.3 µM	> 100 µM	> 100 µM	> 100 µM	39.7 µM	> 100 µM	54.1 µM	> 100 µM	11.7 µM	47.3 µM	71.6 µM	30.9 µM	66.7 µM
O=C1c2cccnc2C(=O)C2C3C=CC(C3)C12 (stereo unspecified)	39.3 µM	–	32 µM	–	15.6 µM	–	15.7 µM	21.7 µM	58 µM	–	35.8 µM	–	31.8 µM	–	5.7 µM	–	29.2 µM	–	–	–
O=c1cc(-c2ccccc2)oc2cc(O)c(O)c(O)c12	> 100 µM	18.2 µM	62.5 µM	7.99 µM	> 100 µM	28 µM	> 100 µM	> 100 µM	39.7 µM	30 µM	88.5 µM	16 µM	41.7 µM	10.2 µM	39.8 µM	8.8 µM	26 µM	92.3 µM	47.1 µM	12.7 µM
CCCCOc1ccc(NC(=O)n2nc(N)c3ccccc32)cc1	> 90.5 µM	13.2 µM	54.2 µM	13 µM	31.2 µM	11.6 µM	24.2 µM	> 100 µM	57.5 µM	21.9 µM	68.4 µM	19 µM	42.2 µM	22.8 µM	> 65.1 µM	23.4 µM	85.9 µM	28.3 µM	26.6 µM	22.6 µM
COc1cc2c(cc1O)-c1c(cnn1-c1ccc([N+](=O)[O-])cc1)CCC2	> 100 µM	–	31.7 µM	–	> 100 µM	–	26.5 µM	> 100 µM	41.9 µM	–	61.2 µM	–	55.2 µM	–	48.6 µM	–	14.7 µM	–	–	–
COc1ccc2c(c1)=C(C=C1C=CN(O)C=C1)C(=O)N=2	> 100 µM	17.4 µM	41.3 µM	> 50.1 µM	> 88.3 µM	23.9 µM	> 67.3 µM	> 100 µM	72.3 µM	12.7 µM	50.8 µM	26.2 µM	> 78.1 µM	35 µM	> 89.6 µM	22.1 µM	59.2 µM	27 µM	9.96 µM	23.8 µM
O=C(Nc1ccccc1)c1nn(-c2cc(S(=O)(=O)O)c([N+](=O)[O-])cc2Cl)[n+](-c2cc(S(=O)(=O)[O-])c([N+](=O)[O-])cc2Cl)n1	> 100 µM	–	> 100 µM	–	> 100 µM	–	> 100 µM	> 100 µM	> 100 µM	–	> 100 µM	–	> 100 µM	–	> 100 µM	–	> 100 µM	–	–	–
Fc1ccc(-c2nn3c(-c4ccc(F)c(Cl)c4)nnc3s2)cc1	> 50 µM	> 50 µM	> 50 µM	27.7 µM	> 50 µM	32.8 µM	> 50 µM	41 µM	> 50 µM	> 50 µM	> 50 µM	> 50 µM	> 50 µM	> 50 µM	> 50 µM	32.3 µM	> 50 µM	> 50 µM	10.1 µM	> 50 µM
CC(C)(O)C#Cc1ccc(/C=C/C(=O)c2ccccc2)s1	30.2 µM	4.37 µM	14.4 µM	17.3 µM	33.5 µM	13.8 µM	26.7 µM	39 µM	34.7 µM	16.5 µM	32 µM	17 µM	31.5 µM	12.6 µM	26.4 µM	18.1 µM	32.1 µM	16 µM	17.1 µM	16.9 µM
CCCc1cc(O)c2c3c(c(=O)oc2c1)CN(C)CC3	67.4 µM	87.3 µM	> 100 µM	> 100 µM	> 100 µM	76.2 µM	> 100 µM	> 100 µM	> 100 µM	> 100 µM	> 100 µM	> 100 µM	> 100 µM	43.5 µM	> 100 µM	> 100 µM	> 100 µM	21.8 µM	82.8 µM	98.9 µM
C#CCN(Cc1nc2cc(C(F)(F)F)ccc2nc1-c1ccccc1)c1ccc(OC(F)(F)F)cc1	> 100 µM	29.1 µM	78.8 µM	38 µM	> 100 µM	37 µM	96.1 µM	> 100 µM	> 100 µM	> 100 µM	> 100 µM	49.1 µM	> 100 µM	39.4 µM	> 100 µM	38.2 µM	> 100 µM	> 100 µM	> 100 µM	60.5 µM
CCC[CH2][Sn]([CH2]CCC)([O]C(=O)c1cc(F)ccc1F)[O][Sn]([CH2]CCC)([CH2]CCC)[O]C(=O)c1cc(F)ccc1F	0.497 µM	0.999 µM	2.32 µM	1.03 µM	2.48 µM	0.132 µM	0.306 µM	1.73 µM	0.311 µM	1.76 µM	3.16 µM	0.512 µM	1.61 µM	0.446 µM	1.67 µM	0.314 µM	1.27 µM	0.169 µM	0.513 µM	0.0702 µM
Cn1cc(C2=C(c3cn(CCO)c4ccccc34)C(=O)NC2=O)c2ccccc21	20.2 µM	2 µM	9.4 µM	2.06 µM	> 25 µM	2.77 µM	> 25 µM	> 25 µM	15.2 µM	10.9 µM	> 25 µM	1.78 µM	14 µM	0.746 µM	> 25 µM	4.75 µM	> 25 µM	3.76 µM	7.83 µM	4.75 µM
